Read-outs that look alike come from different tables or passages of the source.
Key:
[1] = 3H-thymidine incorporation toxicity assay on ConA-stimulated uninfected bovine PBMC (CC50); details: bovine
Method: (§1) All the MMV compounds were initially tested for inhibitory activity on the growth of F100TpM, a bovine lymphocyte cell line infected by T. parva. […] All compounds were tested in triplicate.
(§2) The radiolabeled precursor ^3H-thymidine is incorporated into DNA strands during cell replication and radioisotope incorporation is often used as a measure of cell proliferation.
(§3) IC50 values were calculated using the Graph Pad Prism 7 software (GraphPad Software, Inc., La Jolla, CA), and average values of radio-isotope incorporation in wells with and without compound on the growth of F100TpM cells. The CC50 values were calculated using ^3H-thymidine incorporation values determined on the growth of PBMC stimulated with ConA. The therapeutic index of a compound was calculated by dividing the CC50 value with the IC50 value.

[2] = tested on: F100TpM, a bovine lymphocyte cell line infected by T. parva; test: 3H-thymidine incorporation growth assay on F100TpM cells (screen at 1 μM and IC50 titration); details: for IC50: Bos taurus, Lymphocyte; for TI (CC50/IC50), therapeutic index: CC50 on Con A blasts divided by IC50 on F100TpM;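 for all read-outs here: growth inhibition compared against wells lacking compound, run in triplicate, and CC50 derived from 3H-thymidine uptake by PBMC stimulated with ConA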
Method: as §1, §2, §3

[3] = tested on: P. falciparum 3D7 asexual blood stage; details: cited from earlier work
[4] = uninfected bovine PBMC stimulated with ConA (Con A blasts), CC50 (μM) Con A blasts, uninfected bovine PBMC stimulated with ConA, 48 h compound, 3H-thymidine incorporation
[5] = read-out: IC50 (μM) F100TpM, T. parva infected lymphocyte cell line, 48 h compound, 3H-thymidine incorporation
[6] = MMV Malaria Box sheet, ref MMV data sheets, read-out: EC50_nM
[7] = MMV Malaria Box data sheet, ref MMV data sheets
[8] = MMV Malaria Box data sheet, ref MMV data sheets, read-out: EC50_nM
[9] = source GNF, ref ChEMBL_NTD, read-out: CHEMBL EC50
[10] = source GSK, ref ChEMBL_NTD, read-out: CHEMBL EC50
[11] = ChEMBL-NTD value per source (GNF, GSK, StJude), several values in a cell follow the order of the sources, read-out: CHEMBL EC50
[12] = MMV Malaria Box sheet, ref MMV data sheets
[13] = MMV Malaria Box data sheet (supplement mmc2.xls), ref MMV data sheet
[14] = MMV Malaria Box data sheet (supplement mmc2.xls), ref MMV data sheet, read-out: EC50_nM
[15] = value(s) per source (GSK, GNF, StJude), separated by semicolon, ref ChEMBL-NTD, read-out: CHEMBL EC50

With `CC(C)(C)[C@H]1CC[C@H](CC2=C(O)C(=O)c3ccccc3C2=O)CC1` [Buparvaquone, reference compound] the CC50 at 48 h [1, 4] was > 10 µM, the IC50 [2, 5] was 0.0042 µM and the “TI (CC50/IC50), therapeutic index” value [2] was >2380. The “TI (CC50/IC50), therapeutic index” value ([2]; listed as buparvaquone) was “more than 2000”.

For `Oc1ccc(Br)cc1CN1CCN(Cc2cccc(F)c2)CC1` [MMV000356], the EC50 [3, 6] is listed as 1.03 µM, the EC50 ([3]; source StJude, ref ChEMBL_NTD, read-out: CHEMBL EC50) is listed as 1.4 µM and the CC50 at 48 h [1] is listed as 0.86 µM. The IC50 ([2]; read-out: IC50 (μM) F100TpM) was 0.87 µM and the “TI (CC50/IC50), therapeutic index” value [2] was 0.99.

In the case of `CCCN(CCC)CC(O)COc1ccccc1C(=O)Nc1ccccc1` (stereo not shown) [MMV006455], the “percent_inh @ 5 uM” value [3, 7] is listed as 98%, the EC50 [3, 8] is listed as 0.196 µM and the EC50 [3, 9] is listed as 0.365 µM. For the same compound, the EC50 [3, 10] was 0.799 µM, the CC50 at 48 h [1, 4] was 0.9 µM and the IC50 [2, 5] was 0.84 µM. The “TI (CC50/IC50), therapeutic index” value [2] was 1.07.

For `COc1cc(-c2nc(-c3ccc(Sc4ccccc4)cc3)c(-c3ccccc3)[nH]2)cc(OC)c1O` [MMV007273], the EC50 [3, 11] is listed as 1.28 µM, the CC50 at 48 h [1, 4] is listed as 0.06 µM and the IC50 [2, 5] is listed as 0.04 µM. For the same compound, the “TI (CC50/IC50), therapeutic index” value [2] was 1.5.

For `Clc1ccc2c(N3CCCC3)ccnc2c1` [MMV007363], the “percent_inh @ 5 uM” value [3, 12] is given as 97%, the EC50 [3, 6] is given as 0.944 µM and the EC50 [3, 9] is given as 0.283 µM. For the same compound, the CC50 at 48 h [1, 4] was 1.09 µM, the IC50 [2, 5] was 1.93 µM and the “TI (CC50/IC50), therapeutic index” value [2] was 0.56.

In the case of `COc1ccc(C(=O)NC(c2ccccc2Cl)c2cc(Cl)c3cccnc3c2O)cc1` (stereo not shown) [MMV666022], the EC50 [3, 11] is given as 2.37 µM.

For `c1ccc(Cn2c(N=Nc3c(Nc4ccccc4)ccc4ccccc34)nc3ccccc32)cc1` [MMV666023], the “percent_inh @ 5 uM” value [3, 7] is given as 96%, the EC50 [3, 8] is given as 0.0368 µM and the EC50 [3, 9] is given as 2.73 µM.

In the case of `OC(Cn1nnc2ccccc21)Cn1c2ccc(Br)cc2c2cc(Br)ccc21` (stereo not shown) [MMV666025], the EC50 [3, 11] is given as 3.37 µM.

For `COc1ccc(-c2cc3c(nn2)-c2ccccc2C3=O)cc1` [MMV666026], the EC50 [3, 11] is listed as 3.84 µM.

In the case of `COc1ccc(C(=O)NC(c2ccc(Cl)cc2Cl)c2cc(Cl)c3cccnc3c2O)cc1` (stereo not shown) [MMV666054], the “percent_inh @ 5 uM” value [3, 12] is given as 96%, the EC50 [3, 6] is given as 0.513 µM and the EC50 [3, 10] is given as 0.499 µM.

For `O=C(Nc1ccc(Cl)cc1C(=O)Nc1ccncc1)c1ccc(Cl)cc1Cl` [MMV666057], the “percent_inh @ 5 uM” value [3, 7] is listed as 94% and the EC50 [3, 10] is listed as 0.611 µM.

In the case of `COc1ccc(CN2CCCC(C(=O)c3ccc(C(F)(F)F)cc3)C2)c(O)c1` (stereo not shown) [MMV666060], the EC50 [3, 11] is given as 0.849 µM.

In the case of `COc1cccc(O)c1CN1CCC2(CCCN(Cc3ccc(F)cc3)C2)C1` (stereo not shown) [MMV666061], the “percent_inh @ 5 uM” value [3, 13] is listed as 95%, the EC50 [3, 14] is listed as 0.53 µM and the EC50 [3, 15] is listed as 0.865 µM.

In the case of `Cc1ccc(N2C(=O)C3C(C2=O)C2(c4ccccc4)C(=O)C3(c3ccccc3)C(c3ccccc3)=C2c2ccccc2)cc1` (stereo not shown) [MMV666062], the “percent_inh @ 5 uM” value [3, 7] is listed as 98%, the EC50 [3, 8] is listed as 0.282 µM and the EC50 [3, 10] is listed as 0.869 µM.

In the case of `COc1ccc(CNC2CCN(c3ccc(NC(=O)c4cccc(Cl)c4)cc3)CC2)cc1OC` [MMV666067], the “percent_inh @ 5 uM” value [3, 13] is given as 97%, the EC50 [3, 14] is given as 0.663 µM and the EC50 [3, 15] is given as 1.02 µM.

In the case of `COc1ccc(CCN2CCC(CN(C)Cc3cnn(-c4ccccc4)c3)CC2)cc1` [MMV666069], the “percent_inh @ 5 uM” value [3, 13] is listed as 96%, the EC50 [3, 14] is listed as 1.43 µM and the EC50 [3, 15] is listed as 1.16 µM.

In the case of `O=C(NC1CCCC1)c1ccc(N2CCC(NCc3cccc(C(F)(F)F)c3)CC2)cc1` [MMV666070], the “percent_inh @ 5 uM” value [3, 13] is listed as 93% and the EC50 [3, 15] is listed as 1.33 µM.

For `Cc1ccc(CN2CCC(C(=O)Nc3ccc(-c4cc5ccccc5[nH]4)cc3)CC2)o1` [MMV666071], the “percent_inh @ 5 uM” value [3, 13] is given as 77% and the EC50 [3, 15] is given as 1.42 µM.

In the case of `COCCNC(=O)c1ccc(OC2CCN(Cc3ccc(F)c(F)c3)CC2)c(Cl)c1` [MMV666072], the “percent_inh @ 5 uM” value [3, 7] is given as 91% and the EC50 [3, 10] is given as 1.49 µM.

For `COc1ccc(C2N(C)c3ccccc3N2C)cc1` [MMV666075], the “percent_inh @ 5 uM” value [3, 13] is listed as 62% and the EC50 [3, 15] is listed as 15 µM.

For `Cc1ccc2cc3c(N)c4c(C)ccc(C)c4nc3nc2c1` [MMV666079], the “percent_inh @ 5 uM” value [3, 12] is listed as 98%, the EC50 [3, 6] is listed as 1.31 µM and the EC50 [3, 9] is listed as 0.431 µM.

In the case of `O=C(NC(c1ccccc1)c1ccc2cccnc2c1O)c1ccccc1` (stereo not shown) [MMV666080], the “percent_inh @ 5 uM” value [3, 13] is given as 95% and the EC50 [3, 14] is given as 1.17 µM.

In the case of `CCCc1c(C)nc2ccccc2c1O` [MMV666081], the “percent_inh @ 5 uM” value [3, 13] is given as 88% and the EC50 [3, 15] is given as 0.63 µM.

For `CCCC(c1nnnn1C1CCCCC1)N1CCN(C(=O)c2ccco2)CC1` (stereo not shown) [MMV666093], the “percent_inh @ 5 uM” value [3, 13] is listed as 82% and the EC50 [3, 15] is listed as 1.33 µM.

In the case of `CCCc1c(C)nc2ccc(Br)cc2c1O` [MMV666095], the “percent_inh @ 5 uM” value [3, 12] is listed as 64%, the EC50 [3, 6] is listed as 1.19 µM and the EC50 [3, 9] is listed as 1.51 µM.

For `COc1ccc(C2=C(c3ccc(OC)cc3)C3(c4ccccc4)C(=O)C2(c2ccccc2)C2C(=O)N(c4ccc(C)cc4)C(=O)C23)cc1` (stereo not shown) [MMV666101], the “percent_inh @ 5 uM” value [3, 7] is given as 98%, the EC50 [3, 8] is given as 0.148 µM and the EC50 [3, 9] is given as 12.5 µM.

From article PMC6376154 (International Journal for Parasitology: Drugs and Drug …, 2019)
